Data from ChEMBL document CHEMBL4622979, “Non-rigid Diarylmethyl Analogs of Baloxavir as Cap-Dependent Endonuclease Inhibitors of Influenza Viruses” (J Med Chem, 2020).
Calls of active or inactive are those of the source. The calls are words filed in the database; no cut-off is given here.

How the values were obtained:
[1] = Stability in mouse liver S9 fraction assessed as parent compound remaining at 1 uM measured after 4 hrs by LC-MS/MS analysis; assay type: ADME, subcellular; conditions: read-out: Stability
[2] = AUClast in CD1 mouse plasma at 2 mg/kg, iv administered as single dose by LC-MS/MS analysis; assay type: ADME, organism-based; parameters: dose 2 mg/kg, route intravenous, time 0 - last
[3] = Oral bioavailability in CD1 mouse at 10 mg/kg administered as single dose by LC-MS/MS analysis; assay type: ADME, organism-based; conditions: in vivo
HEK-293T [4] = assay: (§1) Inhibition of CEN polymerase activity in Influenza A/California/04/2009 (H1N1)pdm09 NP/PA/PB1/PB2 complex transfected in HEK293T cells co-expressing beta-galactosidase at 100 nM preincubated for 3 hrs followed by viral gene transfection and measured after 24 hrs by ONPG substrate based luciferase reporter gene mini-replicon assay relative to control; assay type: cell-based; conditions: Influenza A virus (A/California/04/2009(H1N1))
[5] = Ratio of Cmax in CD1 mouse lung to plasma at 10 mg/kg, po administered as single dose by LC-MS/MS analysis; assay type: ADME, organism-based; conditions: lung and plasma
[6] = Stability in simulated gastric fluid assessed as parent compound remaining at 1 uM measured after 4 hrs at pH 1.2 by LC-MS/MS analysis; assay type: physicochemical; conditions: read-out: Stability
[7] = AUClast in CD1 mouse plasma at 10 mg/kg, po administered as single dose by LC-MS/MS analysis; assay type: ADME, organism-based; parameters: dose 10 mg/kg, route oral, time 0 - last
[8] = Stability in rat liver S9 fraction assessed as parent compound remaining at 1 uM measured after 4 hrs by LC-MS/MS analysis; assay type: ADME, subcellular; conditions: read-out: Stability
[9] = AUClast in CD1 mouse lung at 10 mg/kg, po administered as single dose by LC-MS/MS analysis; assay type: ADME, organism-based; conditions: in vivo
[10] = Stability in human liver S9 fraction assessed as parent compound remaining at 1 uM measured after 4 hrs by LC-MS/MS analysis; assay type: ADME, subcellular; conditions: read-out: Stability
[11] = Cmax in CD1 mouse lung at 10 mg/kg, po administered as single dose by LC-MS/MS analysis; assay type: ADME, organism-based; parameters: dose 10 mg/kg, route oral
HEK-293T [12] = assay: as §1, with “25” for “100”; assay type: cell-based; conditions: Influenza A virus (A/California/04/2009(H1N1))
Influenza A virus [13] = assay: Antiviral activity against Influenza A/California/04/2009 (H1N1)pdm09 infected in MDCK cells assessed as protection against virus-induced cell death by CellTiter-Glo assay; assay type: functional, organism-based; conditions: A/California/04/2009(H1N1) pdm09, MDCK
[14] = Cytotoxicity against MDCK cells assessed as reduction in cell viability by CellTiter-Glo assay; assay type: cell-based, Canis lupus familiaris; conditions: dog
[15] = Ratio of AUClast in CD1 mouse lung to plasma at 10 mg/kg, po administered as single dose by LC-MS/MS analysis; assay type: ADME, organism-based; conditions: lung and plasma, read-out: Ratio AUC
[16] = Selectivity index, ratio of CC50 for MDCK cells to EC50 for Influenza A/California/04/2009 (H1N1)pdm09 virus infected in MDCK cells; assay type: toxicity, cell-based; conditions: dog, read-out: Ratio CC50/EC50
[17] = Stability in simulated intestinal fluid assessed as parent compound remaining at 1 uM measured after 4 hrs at pH 1.2 by LC-MS/MS analysis; assay type: physicochemical; conditions: read-out: Stability
[18] = Cmax in CD1 mouse plasma at 10 mg/kg, po administered as single dose by LC-MS/MS analysis; assay type: ADME, organism-based; parameters: dose 10 mg/kg, route oral
[19] = Stability in rat plasma assessed as parent compound remaining at 1 uM measured after 4 hrs by LC-MS/MS analysis; assay type: ADME, cell-free; conditions: read-out: Stability
[20] = Stability in mouse plasma assessed as parent compound remaining at 1 uM measured after 4 hrs by LC-MS/MS analysis; assay type: ADME, cell-free; conditions: read-out: Stability
[21] = Stability in human plasma assessed as parent compound remaining at 1 uM measured after 4 hrs by LC-MS/MS analysis; assay type: ADME, cell-free; conditions: read-out: Stability
Influenza A virus [22] = assay: Antiviral activity against Influenza A virus (A/Denmark/524/2009(H1N1)) pdm09 infected in MDCK cells assessed as protection against virus-induced cell death measured 72 to 96 hrs post-infection by CellTiter-Glo assay; assay type: functional, organism-based
Influenza A virus H3N2 = assay: Antiviral activity against Influenza A virus (A/Fukui/20/2004 (H3N2)) infected in MDCK cells assessed as protection against virus-induced cell death measured 72 to 96 hrs post-infection by CellTiter-Glo assay; assay type: functional, organism-based
Influenza B virus [23] = assay: Antiviral activity against Yamagata lineage of Influenza B virus (B/Florida/4/2006) infected in MDCK cells assessed as protection against virus-induced cell death measured 72 to 96 hrs post-infection by CellTiter-Glo assay; assay type: functional, organism-based
Influenza B virus [24] = assay: Antiviral activity against Victoria lineage of Influenza B virus (B/Brisbane/60/2008) infected in MDCK cells assessed as protection against virus-induced cell death measured 72 to 96 hrs post-infection by CellTiter-Glo assay; assay type: functional, organism-based
[25] = AUClast in CD1 mouse lung assessed as (12aR)-12-[Bis(4-fluorophenyl)methyl]-7-hydroxy-3,4,12,12a-tetrahydro-1H-[1,4]oxazino[3,4-c]pyrido[2,1-f][1,2,4]triazine-6,8-dione level at 15 mg/kg, po administered as single dose by LC-MS/MS analysis; assay type: ADME, organism-based; conditions: in vivo
[26] = AUClast in CD1 mouse plasma assessed as (12aR)-12-[Bis(4-fluorophenyl)methyl]-7-hydroxy-3,4,12,12a-tetrahydro-1H-[1,4]oxazino[3,4-c]pyrido[2,1-f][1,2,4]triazine-6,8-dione level at 15 mg/kg, po administered as single dose by LC-MS/MS analysis; assay type: ADME, organism-based; parameters: dose 15 mg/kg, time 0 - last, route oral; conditions: in vivo
[27] = Ratio of Cmax in CD1 mouse lung to plasma assessed as (12aR)-12-[Bis(4-fluorophenyl)methyl]-7-hydroxy-3,4,12,12a-tetrahydro-1H-[1,4]oxazino[3,4-c]pyrido[2,1-f][1,2,4]triazine-6,8-dione level at 15 mg/kg, po administered as single dose by LC-MS/MS analysis; assay type: ADME, organism-based; conditions: other tissue
[28] = Ratio of AUClast in CD1 mouse lung to plasma assessed as (12aR)-12-[Bis(4-fluorophenyl)methyl]-7-hydroxy-3,4,12,12a-tetrahydro-1H-[1,4]oxazino[3,4-c]pyrido[2,1-f][1,2,4]triazine-6,8-dione level at 15 mg/kg, po administered as single dose by LC-MS/MS analysis; assay type: ADME, organism-based; conditions: other tissue
[29] = Cmax in CD1 mouse lung assessed as (12aR)-12-[Bis(4-fluorophenyl)methyl]-7-hydroxy-3,4,12,12a-tetrahydro-1H-[1,4]oxazino[3,4-c]pyrido[2,1-f][1,2,4]triazine-6,8-dione level at 15 mg/kg, po administered as single dose by LC-MS/MS analysis; assay type: ADME, organism-based; parameters: dose 15 mg/kg, route oral; conditions: in vivo
[30] = Cmax in CD1 mouse plasma assessed as (12aR)-12-[Bis(4-fluorophenyl)methyl]-7-hydroxy-3,4,12,12a-tetrahydro-1H-[1,4]oxazino[3,4-c]pyrido[2,1-f][1,2,4]triazine-6,8-dione level at 15 mg/kg, po administered as single dose by LC-MS/MS analysis; assay type: ADME, organism-based; parameters: dose 15 mg/kg, route oral; conditions: in vivo
[31] = Oral bioavailability in CD1 mouse assessed as (12aR)-12-[Bis(4-fluorophenyl)methyl]-7-hydroxy-3,4,12,12a-tetrahydro-1H-[1,4]oxazino[3,4-c]pyrido[2,1-f][1,2,4]triazine-6,8-dione level at 15 mg/kg administered as single dose by LC-MS/MS analysis; assay type: ADME, organism-based; conditions: in vivo

SMILES	remaining at 4 h, 1 µM [1] [%]	AUC(0-t) [2] [ng·h/mL]	bioavailability [3] [%]	inhibition (HEK-293T [4]) [%]	AUC(0-t) [7] [ng·h/mL]	remaining at 4 h, 1 µM [8] [%]	remaining at 4 h, 1 µM [10] [%]	inhibition (HEK-293T [12]) [%]	EC50 (Influenza A virus [13]) [nM]	CC50 [14] [nM]	selectivity ratio [16]	Cmax [18] [ng/mL]	remaining at 4 h, 1 µM [19] [%]	remaining at 4 h, 1 µM [20] [%]	remaining at 4 h, 1 µM [21] [%]	also measured
O=C1c2c(O)c(=O)ccn2N(C(c2ccc(F)cc2)c2ccc(F)cc2)[C@@H]2COCCN12	103	1070	22.6	80	1820	98.3	97	45.4	13.4	13300	993	308				Kp [5]: 3; remaining at 4 h, 1 µM [6]: 87.3%; AUClast [9]: 4490 ng·h/g; Cmax [11]: 935 ng/g; Kp [15]: 2.5; remaining at 4 h, 1 µM [17]: 96%
CC(C)[N+](C)(CCOC(=O)C1c2ccccc2Oc2ccccc21)C(C)C [PROPANTHELINE]													74.3	1.21	1.28	
CSc1ccccc1[C@H](c1ccc(F)c(F)c1)N1[C@@H]2COCCN2C(=O)c2c(O)c(=O)ccn21				74.1				22.9	32.1	16400	511					
O=C1c2c(O)c(=O)ccn2N(C(c2ccc(F)c(F)c2)c2ccc(F)c(F)c2)[C@@H]2COCCN12				80.9				50.2	22.6	13800	611					
O=C1c2c(O)c(=O)ccn2N([C@@H]2c3ccccc3SCc3c2ccc(F)c3F)[C@@H]2COCCN12 [BALOXAVIR]	87.7	354	3	99.7	79.9	85	93.5	99.6	0.9	5600	> 1000	11.9	73.9	45.4	89.9	Activity (Influenza A virus [22]): Active; Activity (Influenza A virus H3N2): Active; Activity (Influenza B virus [23]): Active; Activity (Influenza B virus [24]): Active
CSc1ccccc1[C@@H](c1ccc(F)c(F)c1)N1[C@@H]2COCCN2C(=O)c2c(O)c(=O)ccn21				13.2				3.1	146	9800	67					
O=C1c2c(O)c(=O)ccn2N([C@@H](c2ccccc2)c2ccc(F)c(F)c2)[C@@H]2COCCN12	92.4	927	17.6	63.2	817	99.6	113	28.4	22.5	12100	538	332	85.8	105	90.3	Kp [5]: 1.5; EC50 (Influenza A virus [22]; A/Denmark/524/2009(H1N1) pdm09, MDCK): 3.6 to 12.5 nM; EC50 (Influenza A virus H3N2; A/Fukui/20/2004, MDCK): 3.6 to 12.5 nM; AUClast [9]: 735 ng·h/g; EC50 (Influenza B virus [23]; B/Florida/4/2006, MDCK): 5100 to 28300 nM; Cmax [11]: 501 ng/g; Kp [15]: 0.9; EC50 (Influenza B virus [24]; B/Brisbane/60/2008, MDCK): 5100 to 28300 nM
COC(=O)OCOc1c2n(ccc1=O)N(C(c1ccc(F)cc1)c1ccc(F)cc1)[C@@H]1COCCN1C2=O																AUClast [25]: 3302 ng·h/g; AUClast [26]: 3186 ng·h/mL; remaining at 4 h, 1 µM [6]: 98.4%; Ratio [27]: 1.1; Ratio AUC [28]: 1; Cmax [29]: 708 ng/g; Cmax [30]: 647 ng/mL; F [31]: 39.6%; remaining at 4 h, 1 µM [17]: 99.7%
O=c1ccc2ccc(O)cc2o1 [UMBELLIFERONE]	0.83					2.74	0.39									
O=C(O)CCCc1ccc(N(CCCl)CCCl)cc1 [CHLORAMBUCIL]																remaining at 4 h, 1 µM [6]: 97.2%; remaining at 4 h, 1 µM [17]: 0.04%
O=C1c2c(O)c(=O)ccn2N([C@H](c2ccccc2)c2ccc(F)c(F)c2)[C@@H]2COCCN12	95.2	2210	2.7	83.9	303	95.4	104	42.2	15.4	15900	> 1000	115	94.4	114	85.7	Kp [5]: 2.3; AUClast [9]: 384 ng·h/g; Cmax [11]: 264 ng/g; Kp [15]: 1.3
